Measured values from patent publication US8318815B2, “Method for treatment of tumors using nordihydroguaiaretic acid derivatives” (priority 1999, dated 2012).

Experiments:
C3 tumor = assay: Histopathology of excised C3 tumors; type: in vivo, mice; conditions: hematoxylin and eosin sections
Procedure: Drug treated (M4N) and DMSO vehicle-treated or untreated tumors (CON) from two groups of mice were prepared for histopathology examination. The excised tumors were immediately fixed and then stored in 4% formaldehyde in phosphate buffered saline. The fixed tissue was then dehydrated through a series of graded alcohols and xylene and embedded in paraffin. The paraffin tissue blocks were thin sectioned and stained for microscopy with hematoxylin and eosin. […] They show the high nuclear/cytoplasmic ratio, pleomorphic nuclear changes, high mitotic figures, spindle like sarcoma shape, and infiltration into the surrounding tissue characteristic of cancer cells.

C3 cells = test system: C3 cells
Procedure: (§1) FIG. 9. […] (a-d) C3, CEM-T4, C33a, and TC-1 cells were treated with different concentrations of M4N. The number of cells present at the initiation of the experiment is indicated as Day 0. After three days the number of viable cells were counted and plotted versus the M4N concentration. […] After 3 days, one-half of the M4N treated cells were given fresh media containing only 1% DMSO (M-D), while the rest of the cells were given fresh media with the same conditions (second media change). The cells were counted daily and plotted versus the time of treatment.
HPV-16 transformed immortal mouse epithelial cells (C3 cells) were plated at a density of 10^5 cells per vial.
The effect on C3 growth following removal of M4N from the medium was also examined. C3 cells were plated at a density of 10^4 cells per vial. […] The other ⅔ of the cell vials were washed and replaced with the same media administered before.
This hypothesis was tested by examining the antiproliferative effect of M4N on a number of different cell lines.

survivin gene expression = assay: RT-PCR analysis of survivin gene expression in C3 cells; type: cell-based, mouse; conditions: 40 μM
Procedure: FIG. 17. RT-PCR Analysis of Survivin Gene Expression. […] Bottom: the corresponding GAPDH controls. Band intensities were quantitated with Scion Image. (b) Survivin RT-PCR product signals were normalized to those of the GAPDH controls and plotted.
M4N Treatment. C3 cells (5×10^6) were seeded in 150-mm plates and allowed to attach to the plates. Twenty-four hours after seeding, cultures were washed twice with PBS and treated with M4N dissolved in 1% DMSO mixed with the growth medium.
RT-PCR analysis. mRNA was isolated by the guanidinium thiocyanate and phenol method from the cultured cells as described in Molecular Cloning (40). […] The c-DNA products obtained were amplified under the PCR conditions: […], 60° C. for 55 seconds, and 72° C. for 1 minute for 30 cycles.

HSV-1 = HSV-1 skin infection in guinea pig, topical treatment; type: in vivo
Procedure: The drug M4N was also tested in inhibition of HSV-1 replication in skin infections in guinea pigs. Guinea pig skin was pinched with needles and HSV-1 […] was applied topically to infect each pricked area. M4N was then applied to the pricked infected area following infection daily for 6 days.
Six areas of bared back skin of a guinea pig were punched sterilely with a 5=DIN needle. Two areas were infected with HSV-1 (HSV-C, culture supernatant, or isolated HSV in saline, HSV-SC). The other four areas were infected with HSV-SC.

[1] = test system: HIV LTR promoter (Tat-transactivation); assay: Tat-transactivation of HIV promoter activity in Cos cells, SEAP assay; type: cell-based; conditions: read-out: IC50 for inhibition of HIV Tat-regulated transactivation
Description: As reported previously, methylated NDGA derivatives can block Sp1 binding to the enhancer sites of a variety of viral promoters including HIV, ICP4 of HSV, E6/E7 gene of HPV (8, 9, 10). We further tested the G4N effect on the Tat-transactivation of HIV promoter activity in Cos cells by the SEAP assay as previously described. […] There were 60-fold or more increase in SEAP expression when Cos cells were cotransfected with the CMV promoter driven Tat gene (8). Such Tat-driven ransactivation of the HIV LTR promoter activity was previously shown to be Sp1 regulated (7, 8). In the presence of G4N, we observed inhibition of HIV transactivation in a dose-dependent fashion (FIG. 14). […]. The differences perhaps are due to the chemical nature of the test compounds affecting the drug uptake to the cells.

TC-1 cell line = assay: TC-1 cell growth; conditions: TC-1 cells
Procedure: as §1

[2] = test system: cellular gene expression in C3 cells; assay: 9600 gene array hybridization of C3 cells; type: cell-based, mouse; conditions: 72 hrs
Description: Gene expression with 9600 gene arrays was studied (FIG. 5). Five micrograms each of poly A^+RNA from 72 hrs. M4N ([…]) treated (C3 M4N) and non-treated (C3 DMSO) was used in a pair of human 9600 gene array hybridization study according to the procedure described in Genomics 51, 313-324 1998. The hybridization image was captured by a color video camera with a Nikon 55 mm AF micro Niko lens and digitized by a Macintosh LC630 computer. Such detection via enzyme substrate reaction of color-forming enzymes in either single or dual-color mode is reproducible and extremely sensitive (can detect <5 copies of transcript per cell with RNAs from 10^7 cells).
[…]. Image files in TIFF format and data files in MS excel format are kept on ZIP diskette. Gene names and clone ID numbers are available for obtaining Image clones for future northern blot confirmation.

SMILES: COc1ccc(C[C@@H](C)[C@@H](C)Cc2ccc(OC)c(OC)c2)cc1OC [M4N, tetra-O-methylnordihydroguaiaretic acid]
- histopathology of treated tumors (C3 tumor): significant necrosis
- rate of cell growth following the change to drug-free media (C3 cells; 40 μM for 73 hours, then media with 1% DMSO only): not notably increased
- fraction of viable cells compared to the total cell count (C3 cells; 40 μM in 1% DMSO): remained constant
- growth and division of C3 cells (C3 cells; 40 μM in 1% DMSO, versus DMSO only control): markedly reduced
- "threshold" concentration above which the percentage of viable cells decreases precipitously (C3 cells; C3 cells): 60 µM
- cell death after prolonged exposure (C3 cells; C3 cells, eight days, 40 μM): no increase in cell death
- viable fraction of arrested cells (C3 cells; the four cell lines treated (C3, CEM-T4, C33a, TC-1), up to the threshold concentration): > 95%
- reduction in survivin expression (survivin gene expression; 24 hours): 65%
- reduction in survivin expression (survivin gene expression; 72 hours): 80%
- blisters in HSV-1 infected skin areas at day 6 (HSV-1; 30 μl of 60 mg/ml in DMSO, five times per day for six days): no blisters
- shedding of the virus (HSV-1; 4 days after the drug treatment): no shedding of the virus
- IC50 [1]: 11 µM
- "threshold" concentration above which the percentage of viable cells decreases precipitously (TC-1 cell line): 40 µM
- Cyclin-dependent kinase 7 expression, Treated ([2]; 40 μM, Untreated = 100%): (5%)
- Cysteine protease expression, Treated ([2]; 40 μM, Untreated = 100%): (7%)
- Human TNF-related Apoptosis AP02 expression, Treated ([2]; 40 μM, Untreated = 100%): (3%)
- Human cytokine receptor expression, Treated ([2]; 40 μM, Untreated = 100%): (2%)
- Proliferating cell nuclear antigen, PCNA expression, Treated ([2]; 40 μM, Untreated = 100%): (1%)
- Increase: Apoptosis (APO-1) antigen ([2]; 40 μm, vs C3 DMSO): (100X)
- Increase: Cyclin-dependent kinase inhibitor ([2]; 40 μm, vs C3 DMSO): (100X)
- Increase: Death Domain Three DR3 ([2]; 40 μm, vs C3 DMSO): (100X)
- Increase: Human Map Kinase ([2]; 40 μm, vs C3 DMSO): (40X)
- Increase: Ras-related protein RAP-1 ([2]; 40 μm, vs C3 DMSO): (60X)
